{"source": "patent US6630516B2", "about": "“Methods and compositions for preventing and treating chronological aging in human skin” (The Regents of the University of Michigan, priority 1997, dated 2003)", "key": {"[1]": {"tested_on": "sun-protected skin of subjects at least 80 years old", "test": "Histology and morphometry of elderly skin biopsied seven days after one topical treatment", "assay_type": "in vivo, human", "source_text": "To investigate the treatment of chronologically-aged skin, 17 subjects having an age of at least 80 years old were given one topical treatment with 1% retinol or with vehicle alone, the test area was occluded for seven days, and the test area was then biopsied. The vehicle was composed of a mixture of ethanol and polyethylene glycol in a 70:30 volumetric ratio. In comparing vehicle-treated skin with untreated skin from individuals of the same elderly age range, there were no statistically significant differences in any of the parameters described with reference to FIG. 2, namely the number of fibroblasts and keratinocytes, the epidermal thickness, and undesirable dermal connective tissue features. […] Due to the short duration of the retinoid (retinol) treatment, little change in the number of detrimental dermal connective tissue features (11B) was apparent.\nHistology and morphometry. Replicate 4-mm punch biopsies were obtained from buttock skin of each individual. Formalin-fixed tissue pieces were sectioned, stained with hematoxylin and eosin, randomized and blinded. The sections were examined using an Olympus BX40 microscope in conjunction with a Sony DCX-151 high-resolution camera. Blocked areas 200 μm on a side were isolated using NIH Imager software and epidermal height was assessed at four sites (25 μm apart) in each of two such areas. The same two blocked areas were used for epithelial cell counts. The number of interstitial cell nuclei (i.e., nuclei below the dermo-epidermal juncture, not associated with capillaries) over the entire histological section was determined as a measure of dermal cellularity. The same blinded sections were scored for connective tissue fiber spacing, thickness, degree of disorganization and depth of disorganization, using a scale of 1-9 for each parameter."}, "keratinocytes": {"tested_on": "keratinocytes", "test": "Ex vivo cell growth from biopsies after 7-day in vivo treatment (keratinocytes)", "set-up": "species or system human", "details": "one application of 1% retinol in vivo, occluded seven days, biopsy cells cultured ex vivo; age over 80; p<0.05", "description": "(§1) That is, an elderly volunteer was treated with retinol (one application of 1% retinol, occluded for seven days), the treated area was biopsied, and the keratinocytes and fibroblasts from the biopsy were cultured ex vivo. […] In particular, keratinocytes growth increased by about 30% (12A) while fibroblast growth increased by about 200% (12B), with p<0.05 for both. Accordingly, the topical application of a retinoid to aged skin would be expected to increase the number of keratinocytes and/or the number of fibroblasts in the skin.\n(§2) Ex vivo cell growth. Biopsies were minced into small fragments (approximately 15 fragments per tissue piece) and the tissue fragments transferred to plastic cell culture flasks. Culture medium consisted of Dulbecco's Modified Minimal Essential Medium of Eagle with Earle's salts, non-essential amino acids and 10% fetal bovine serum. Tissue fragments were incubated at 37° C. and 5% CO2/95% air for up to one month. Each fragment was scored for whether keratinocytes and/or fibroblasts grew out of the tissue and from this, the percentage of fragments from which keratinocytes and fibroblasts were isolated was determined according to the method of Varani, J., et al., J Clin. Invest., 96, 1747-1756 (1994)."}, "fibroblasts": {"tested_on": "fibroblasts", "test": "Ex vivo cell growth from biopsies after 7-day in vivo treatment (fibroblasts)", "set-up": "species or system human", "details": "one application of 1% retinol in vivo, occluded seven days, biopsy cells cultured ex vivo; age over 80; p<0.05", "description": "as §1, §2"}, "MMP-1": {"tested_on": "MMP-1", "test": "Matrix metalloproteinase assay (collagenolytic activity) in biopsies of treated elderly skin", "assay_type": "in vivo, human", "details": "seven days after a single retinol treatment, vs vehicle only, p<0.001", "source_text": "(§3) We also used the biopsies from the aforementioned volunteers to determine the effect of the same retinoid treatment on the relative activity of the same collagenase enzymes studied for the results shown in FIG. 4. FIGS. 14A, 14B, and 14C depict the average MMP activity levels (for collagenase MMP-1 and gelatinases MMP-9 and MMP-2, respectively) after treatment of elderly individuals with retinol. […] (In FIGS. 14A-14C, the number of subjects for each figure was 10; “*” indicates […] versus the 18-29 year old values, “**” indicates p<0.1, and “***” indicates p<0.001.)\nMatrix metalloproteinase assays. Tissue pieces were frozen in liquid nitrogen immediately after biopsy, homogenized in 20 mM Tris HCl (pH 7.6) plus 5 mM CaCl2, and centrifuged at 3000×g for 10 minutes to remove particulates. Ability to release soluble radioactive fragments from 3H-labeled fibrillar Type I collagen (described by Fisher, G. J., et al., Nature, 379, 335-339 (1996) and Hu, C-L, et al., Analytic. Biochem, 88, 638-643 (1978)) was used as a measure of collagenolytic activity. […] Subsequently, 0.2 μCi of collagen substrate (NEN-DuPont, Boston, Mass.) was incubated for 24 hours with 50 μl of tissue extract. […] Radioactivity remaining in the supernatant fluid was then measured and from this, the percentage of substrate hydrolzyed was determined."}, "MMP-9": {"tested_on": "MMP-9", "test": "Gelatin zymography in biopsies of treated elderly skin (MMP-9)", "assay_type": "in vivo, human", "details": "seven days after a single retinol treatment, vs vehicle only, p<0.001", "source_text": "as §3\n(§4) Gelatin zymography (Varani et al., op. cit.) was used to assess MMP-2 (72-kD gelatinase; gelatinase A) and MMP9 (92-kD gelatinase; gelatinase B) activity. Tissue extracts were electrophoresed in an 8.5% SDS-polyacrylamide gel containing 1 mg/ml of gelatin. After electrophoresis, the SDS was removed by three sequential washes in 1% Triton X-100. The first two washes were for 20 minutes each and the last was overnight. Quantitation of hydrolysis zone width was done by laser densitometry."}, "MMP-2": {"tested_on": "MMP-2", "test": "Gelatin zymography in biopsies of treated elderly skin (MMP-2)", "assay_type": "in vivo, human", "details": "seven days after a single retinol treatment, vs vehicle only", "source_text": "as §3, §4"}, "[2]": {"tested_on": "Type III procollagen α1(III) mRNA", "test": "In vivo induction of Type III procollagen mRNA in elderly skin", "set-up": "species or system human", "details": "1% retinol cream applied once to sun-protected skin, covered with a patch seven days; seven 80+ year old individuals", "description": "Seven 80+ year old individuals were treated clinically with 1% retinol cream, applied once to sun-protected skin, covered with a patch, and left undisturbed for seven days.\nNorthern analysis of RNA. Total RNA (e.g., for c-Jun, procollagen α1(III)) was isolated from skin samples by guanidinium hydrochloride lysis and ultracentrifugation (as described by G. J. Fisher et al., “Cellular, immunologic and biochemical characterization of topical retinoic acid-treated human skin,” J Investig. Dermatol, 96:699-707 (1991)). Northern analysis of total RNA (40 μg/lane) with randomly primed ^32P labelled cDNA probes for the particular mRNA to be determined were performed as described by G. J. Fisher et al. (in “All trains retinoic acid induces cellular retinol-binding protein in human skin in vivo,” J Investig. Dermatol, 105:80-86 (1995)). Type III procollagen mRNA was determined using […]."}, "ERK": {"tested_on": "ERK", "test": "ERK activity assay in biopsies of treated elderly skin", "assay_type": "in vivo, human", "details": "1% retinol applied to sun-protected skin, occluded, examined seven days later; three 80+ year old volunteers; control normalized to one", "from_the_text": "Using the same technique as previously described for retinoid treatment (1% retinol applied to sun-protected skin, occluded, and examined seven days later), we treated and then tested three of our 80+ year old volunteers to determine the effect of retinoid treatment on ERK activity. […] ERK phosphorylation and activity assays. ERK1 and ERK2 in skin supernatants were immunoprecipitated with antibodies from Santa Cruz Biotechnology Inc. and assayed for enzymatic activity using myelin basic protein as substrate, as described by J. D. Weber et al. (“Sustained activation of extracellular-signal regulated kinase I (ERK1) is required for the continued expression of cyclin D1 in G1 phase,” Biochem. J., 326:61-68 (1997)). Total and phosphorylated ERK1 and ERK2 in supernatants were determined by Western analysis, using antibodies from New England Biolabs Inc. (Beverly, Mass.)"}, "c-Jun protein": {"tested_on": "c-Jun protein", "test": "Stained sectioned biopsies of elderly skin: c-Jun protein", "assay_type": "in vivo, human", "details": "seven days after a single application of 1% retinol; 80+ volunteers; stained sections", "source_text": "As noted above, AP-1 induces MMP formation and is formed by the heterodimerization of c-Jun and c-Fos proteins."}, "Type I procollagen": {"tested_on": "Type I procollagen", "test": "Stained sectioned biopsies of elderly skin: Type I procollagen", "assay_type": "in vivo, human", "details": "seven days after a single application of 1% retinol; 80+ volunteers; stained sections; vs vehicle", "source_text": "(§5) Additional sectioned and stained biopsies from our oldest (80+) group of volunteers after retinoid treatment are depicted in FIG. 18. As noted above, AP-1 induces MMP formation and is formed by the heterodimerization of c-Jun and c-Fos proteins. […] Thus, our invention appears to inhibit c-Jun formation and thereby inhibit the formation of AP-1 and the resulting MMPs. […] (The apparently lower density of procollagen in the dermis in FIG. 18C is an artifact of the section made; there is clearly a higher level of staining in the retinol treated section than in the vehicle treated section.)\n(§6) In another aspect, this invention is directed to improving, or stimulating, the synthesis of Types I and III procollagen in an elderly person's skin. We have found there is a significant reduction in Types I and III procollagen synthesis in sun-protected skin of many (at least 50% of) aged individuals and that this condition can be treated by the topical application of a retinoid. Procollagen is a protein synthesized by skin fibroblast cells and then secreted into the extracellular medium, where it is converted by naturally occurring enzymes into collagen. Reduced procollagen synthesis in an elderly person's skin is manifest as a reduced presence of procollagen protein in both the upper dermis (extracellular) and in fibroblasts throughout the dermis, and can be determined (e.g.) by immunohistochemistry."}, "Type III procollagen": {"tested_on": "Type III procollagen", "test": "Stained sectioned biopsies of elderly skin: Type III procollagen", "assay_type": "in vivo, human", "details": "seven days after a single application of 1% retinol; 80+ volunteers; stained sections; vs vehicle", "source_text": "as §5, §6"}, "procollagen protein": {"tested_on": "procollagen protein", "test": "Procollagen protein levels in chronologically-aged skin after treatment", "assay_type": "in vivo, human", "details": "single application of 1% retinol to chronologically-aged skin, covered with air-permeable adhesive bandage, examined seven days later", "source_text": "as §6\nIt has been found unexpectedly that topical treatment of elderly, chronoaged skin with a retinoid results in a restitution of intracellular procollagen protein levels similar to those observed in young individuals (such as those aged 40 and younger). […] It would be more preferable for elderly persons to apply the retinoid once or twice daily to maintain a therapeutic regimen, although the agent could be applied on a less frequent but preferably regular basis (e.g., every other day, or once weekly). […]"}, "[3]": {"details": "1% retinol, one topical application, occluded seven days, vs vehicle-treated skin, age 80+"}, "[4]": {"details": "one application of retinol, 7 days, sun-protected skin of an individual, vs vehicle-treated skin"}}, "note": "Entries after “also recorded” stand apart in the source; their conditions may differ.", "data": [{"smiles": "CC1=C(/C=C/C(C)=C/C=C/C(C)=C/CO)C(C)(C)CCC1", "note": "[retinol]", "values": [{"measurement": "mean increase in number of keratinocytes per section", "setting": "[1]; 1% retinol, one topical application, occluded seven days, vs vehicle-treated skin of same individuals, age 80+, p<0.001", "value": 273, "unit": "%"}, {"measurement": "mean increase in number of fibroblasts per section", "setting": "[1]; 1% retinol, one topical application, occluded seven days, vs vehicle-treated skin of same individuals, age 80+, p<0.05", "value": 30, "unit": "%"}, {"measurement": "epidermal thickness", "setting": "[1]; [3]", "value": "increased the epidermal thickness substantially; also recorded: thickened"}, {"measurement": "number of detrimental dermal connective tissue features", "setting": "[1]; [3]", "value": "little change"}, {"measurement": "appearance of dermal collagen", "setting": "[1]; [4]", "value": "denser and more regular"}, {"measurement": "interfacial surface area between epidermis and dermis (rete pegs and dermal papillae)", "setting": "[1]; [4]", "value": "increased"}, {"measurement": "increase in ex vivo keratinocytes growth", "setting": "keratinocytes", "value": "about 30%"}, {"measurement": "increase in ex vivo fibroblast growth", "setting": "fibroblasts", "value": "about 200%"}, {"measurement": "decrease in MMP-1 activity", "setting": "MMP-1", "value": 48, "unit": "%"}, {"measurement": "decrease in MMP-9 activity", "setting": "MMP-9", "value": 39, "unit": "%"}, {"measurement": "change in the activity of MMP-2", "setting": "MMP-2", "value": "no significant change"}, {"measurement": "increase in Type III procollagen mRNA from control (vehicle-treated) areas", "setting": "[2]", "value": "about 2.5 times"}, {"measurement": "ERK activity in vivo compared with vehicle-treated area", "setting": "ERK", "value": "more than doubled"}, {"measurement": "c-Jun level in elderly skin compared with vehicle-treated skin", "setting": "c-Jun protein", "value": "decreased; also recorded: significantly reduced (almost absent)"}, {"measurement": "level of Type I procollagen in skin", "setting": "Type I procollagen", "value": "increased; also recorded: enhanced"}, {"measurement": "level of Type III procollagen in skin", "setting": "Type III procollagen", "value": "increased; also recorded: enhanced"}, {"measurement": "procollagen protein levels", "setting": "procollagen protein", "value": "comparable to those found in sun-protected skin of significantly younger individuals"}]}]}
